Reference: patent US3966731A, “2-Fluoromethyl-3-o-tolyl-6-amino-4(3H)-quinazolinone” (Tanabe Seiyaku Co., Ltd., priority 1973, dated 1976)

How the values were obtained:
[1] = tested on: cardiazol-induced convulsive death in mice; experiment: Anti-cardiazol activity, protection from cardiazol-induced convulsive death; assay type: in vivo; conditions: for ED50: Mus musculus, oral, 125 mg of cardiazol s.c. 30 minutes after dosing, protection at 60 minutes
Experimental: (§1) The quinazolinone derivative [I] of the present invention has potent tranquilizing, anti-convulsive and analgesic activities. […] On the other hand, when examined under the same condition as above, 200 mg of Mefenamic acid[Chemical name: N-(2,3-xylyl)anthranilic acid] are required to produce 25 % decrease in said carageenin-induced edema.
Anti-cardiazol activity. A drug was administered orally to mice. After 30
minutes of the dosing, 125 mg of cardiazol were injected subcutaneously t
the mice. ED50 of the drug was estimated from the number of mice
which were protected from cardiazol-induced convulsive death 60 minutes
after injection of cardiazol.

mice [2] = experiment: Muscle relaxing activity, inclined plate method (oral, mice); assay type: in vivo; conditions: Mus musculus, 15, 30 and 45 minutes after dosing, read-out: Muscle relaxing activity ED50 (B)
Experimental: (§2) (B) :Activity examined by the inclined plate method. A drug was
(§3) administered orally to mice. After 15, 30 and 45 minutes of the dosing,
(§4) the mice were put on the center of a canvas (60 cm in length and 50 cm in
(§5) width) having been set up with an inclination of 60 degrees. ED50 of
(§6) the drug was estimated from the number of mice which slipped down from th
(§7) canvas within one minute.

[3] = tested on: acetic acid-induced writhings; experiment: Analgesic activity, acetic acid-writhing method; assay type: in vivo, mice; conditions: for ED50: Mus musculus, oral, mice, 1 % acetic acid i.p., 50 % reduction in writhings
Experimental: as §1
Analgesic activity. One % acetic acid solution was injected
intraperitoneally to mice at the dose of […] after oral
administration of a drug, and the number of writhings per mouse was
counted for 5 minutes starting at 10 minutes after injection of acetic
acid. ED50 of the drug was estimated as the dose which would produce
50 % reduction in acetic acid-induced writhings.

[4] = Acute toxicity (oral, mice, 72 hours); safety margin; assay type: in vivo; conditions: mouse, in vivo, mice, oral; for selectivity ratio: po; for LD50 at 72 h: died 72 hours after dosing, read-out: Side effect: Acute toxicity LD50 (E)
Experimental: (§8) (E) :A drug was administered orally to mice. The 50 % lethal dose
(§9) (LD50) of the drug was estimated from the number of mice which died
(§10) 72 hours after the dosing.
(§11) Therapeutic index and Safety margin: Said index and margin were calculate

mice [5] = experiment: Muscle relaxing activity, rotating rod method (oral, mice); assay type: in vivo; conditions: Mus musculus, 0.5 h, 30 minutes after dosing, read-out: Muscle relaxing activity ED50 (C)
Experimental: (§12) (C) :Activity examined by the rotating rod method. A drug was administere
(§13) orally to mice. After 30 minutes of the dosing, the mice were placed for
(§14) minutes on rotating rods (3.5 cm in diameter, 14 rpm.). ED50 of the
(§15) drug was estimated from the number of mice which fell out of the rods

[6] = Japanese patent application No. 81910/1971; cited from earlier work
[7] = Hypnotic activity, loss of righting reflex (oral, mice); therapeutic index; assay type: in vivo; conditions: mouse, in vivo, mice, oral; for selectivity ratio: po; for TD50: loss of righting reflex for more than 20 seconds in 50 % of the mice, read-out: Side effect: Hypnotic activity HD50 (D)
Experimental: (§16) (D) :A drug was administered orally to mice. The hypnotic activity of the
(§17) drug was determined by the number of mice which lost righting reflex for
(§18) more than 20 seconds. HD50 of the drug was estimated as the dose
(§19) which was required to produce the losing of righting reflex in 50 % of th
as §11

mice [8] = experiment: Muscle relaxing activity, traction method (oral, mice); assay type: in vivo; conditions: Mus musculus, 10, 20 and 30 minutes after dosing
Experimental: (§20) (A) :Activity examined by the traction method. A drug was administered
(§21) orally to mice. After 10, 20 and 30 minutes of the dosing, the mice were
(§22) suspended by the forepaws to a metallic wire of 1 mm in diameter.
(§23) ED50 of the drug was estimated from the number of mice which fell ou
(§24) of the wire within 10 seconds.

mice [9] = experiment: Central muscle relaxing activity (Table 1, traction, inclined plate and rotating rod methods together); conditions: mouse, in vivo
Experimental: as §20, §21, §22, §23, §24, §2, §3, §4, §5, §6, §7, §12, §13, §14, §15

[10] = Arzneimittel Forshung 21(1971), 238-243; U.S. Pat. No. 3317388; cited from earlier work
mice [11] = experiment: Hypnotic activity, loss of righting reflex (oral, mice); therapeutic index; assay type: in vivo; conditions: for hypnotic activity (side effect), in words: mouse, in vivo
Experimental: as §16, §17, §18, §19, §11

carageenin-induced edema = experiment: Anti-inflammatory activity, carageenin-induced edema; assay type: in vivo, rats
Experimental: as §1
Anti-inflammatory activity. A drug was administered orally to rats at the
dose of 30 mg/kg. To the control group was administered orally a
physiological saline solution. After one hour, one % carageenin solution
was injected subcutaneously to the rats through planta of hind legs at th
dose of 0.5 ml/rat. Then, the volume of the hind legs in the control and
medicated groups were measured at 3 hours after injection of carageenin,
and the preventive effect (%) of the drug against carageenin-induced edem
was calculated therefrom.

[12] = Tranquilizing activity (no method given); conditions: in vivo
mice [13] = experiment: Acute toxicity (oral, mice, 72 hours); safety margin; assay type: in vivo; conditions: vs 2-methyl-3-(o-tolyl)-6-amino-4(3H)-quinazolinone; ratio of muscle relaxing activity to acute toxicity
Experimental: as §8, §9, §10, §11

[14] = LD50 / ED50 inclined plate method, read-out: Safety margin E/B
[15] = LD50 / ED50 rotating rod method, read-out: Safety margin E/C
[16] = LD50 / ED50 traction method, read-out: Safety margin E/A
[17] = HD50 / ED50 inclined plate method, read-out: Therapeutic index D/B
[18] = HD50 / ED50 rotating rod method, read-out: Therapeutic index D/C
[19] = HD50 / ED50 traction method, read-out: Therapeutic index D/A

Row | Structure (SMILES) | ED50 ([1]; mice) [mg/kg] | ED50 (mice [2]) [mg/kg] | ED50 [3] [mg/kg] | selectivity ratio [4, 14] | selectivity ratio [4, 15] | selectivity ratio [4, 16] | LD50 at 72 h [4] [mg/kg] | ED50 (mice [5]) [mg/kg] | selectivity ratio [7, 17] | selectivity ratio [7, 18] | selectivity ratio [7, 19] | TD50 [7] [mg/kg] | ED50 (mice [8]) [mg/kg] | hypnotic activity (side effect), in words (mice [11]) | further results
1 | Cc1ccccc1-n1c(CF)nc2ccccc2c1=O [2-fluoromethyl-3-(o-tolyl)-4(3H)-quinazolinone] | 56.1 | 58.9 | 42.1 | 12.1 | 10.5 | 5.1 | 710 | 67.5 | 1.48 | 1.29 | 0.63 | 87.3 | 138 |  | hypnotic use, in words (Inoue et al) [6]: useful as hypnotic agents
2 | Cc1ccccc1-n1c(CF)nc2ccc([N+](=O)[O-])cc2c1=O [2-fluoromethyl-3-(o-tolyl)-6-nitro-4(3H)-quinazolinone] |  | > 100 |  |  |  |  |  | > 100 |  |  |  | > 100 | > 100 |  | hypnotic use, in words (Inoue et al) [6]: useful as hypnotic agents
3 | Cc1ccccc1-n1c(C)nc2ccc(N)cc2c1=O [2-methyl-3-(o-tolyl)-6-amino-4(3H)-quinazolinone] | 16.9 | 22.5 | 10 |  |  |  |  | 22.5 |  |  |  | 33.7 | 24 |  | muscle relaxing activity, in words (mice [9]): relatively strong muscle relaxing activity; muscle relaxing activity, in words (Breuer et al) [10]: shows a muscle relaxing activity
4 | CN1C(=O)CCS(=O)(=O)C1c1ccc(Cl)cc1 (stereo not drawn) [Chlormezanone, 2-(p-chlorophenyl)tetrahydro-3-methyl-4H-1,3-thiazin-4-one 1,1-dioxide] | 28.8 | 156 | 258 | 8.6 | 6.1 | 6.5 | 1340 | 222 | 2.47 | 1.74 | 1.86 | 386 | 208 | potent hypnotic activity | 
5 | Cc1cccc(Nc2ccccc2C(=O)O)c1C [Mefenamic acid, N-(2,3-xylyl)anthranilic acid] |  |  |  |  |  |  |  |  |  |  |  |  |  |  | decrease in carageenin-induced edema (carageenin-induced edema; 200 mg of Mefenamic acid required, same condition (oral, rats)): 25%
6 | Cc1ccccc1OCC(O)CO (stereo not drawn) [Mephenesin, 3-(o-tolyloxy)-1,2-propanediol] | 600 | 551 |  | 3.7 | 4.1 | 3.8 | 2020 | 498 | 1.5 | 1.66 | 1.56 | 824 | 527 | potent hypnotic activity | 
7 | Cc1ccccc1-n1c(CF)nc2ccc(N)cc2c1=O [quinazolinone derivative [I], 2-fluoromethyl-3-(o-tolyl)-6-amino-4(3H)-quinazolinone] | 15.7 | 19.3 | 11.8 | 27.4 | 23.6 | 25.5 | 528 | 22.4 | 2.75 | 2.37 | 2.57 | 53.1 | 20.7 | relatively less hypnotic activity | anti-convulsive activity, in words ([1]; mouse, in vivo): potent; anti-cardiazol activity, times superior to 2-fluoromethyl-3-(o-tolyl)-4(3H)-quinazolinone ([1]; vs 2-fluoromethyl-3-(o-tolyl)-4(3H)-quinazolinone, mice): 3.6 times; anti-cardiazol activity, times superior to 2-methyl-3-(o-tolyl)-6-amino-4(3H)-quinazolinone ([1]; vs 2-methyl-3-(o-tolyl)-6-amino-4(3H)-quinazolinone, mice): 1.1 times; anti-cardiazol activity (ED50), times superior to Chlormezanone ([1]; vs Chlormezanone, mice): about 2 times; Anti-inflammatory activity: preventive effect (%) against carageenin-induced edema (carageenin-induced edema; oral, rats, 30 mg/kg, 3 hours after carageenin): 28%; anti-inflammatory activity, in words (carageenin-induced edema; rat, in vivo): potent anti-inflammatory activity; tranquilizing activity, in words [12]: potent; analgesic activity (ED50) compared with Chlormezanone ([3]; acetic acid-writhing method, in words): apparently stronger than that of Chlormezanone; analgesic activity, in words ([3]; mouse, in vivo): potent; safety margin, times superior to 2-methyl-3-(o-tolyl)-6-amino-4(3H)-quinazolinone (mice [13]): about 7 times; therapeutic index, times superior to Chlormezanone (mice [11]; vs Chlormezanone, ratio of muscle relaxing to hypnotic activity): about 2 times; therapeutic index, times superior to Mephenesin (mice [11]; vs Mephenesin, ratio of muscle relaxing to hypnotic activity): about 2 times
